Measured values as given in paper PMC11093748, “De novo identification of CD4^+ T cell epitopes” (Nature Methods, 2024).

Experiments:
Format in all cases: cell-based, mouse
TCR11 = test: Single SABR-II co-incubation, NFAT-GFP Jurkat; details: TCR 11
In short: (§1)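 Single SABR-II constructs for putative cognate epitopes were expressed in CellTrace Violet-labelled NFAT–GFP Jurkat cells and co-incubated 1:1 (5 × 10^5 each) with TCR-expressing Jurkat cells for 16–20 h. GFP (with CD69 staining when indicated) was measured by flow cytometry. Wells with GFP above the no-TCR control were scored positive.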

TCR37 = test: Single SABR-II co-incubation, NFAT-GFP Jurkat; details: TCR 37, Fig 3B, 18 h
In short: as §1

TCR30 = test: Single SABR-II co-incubation, NFAT-GFP Jurkat; details: TCR 30
In short: as §1

TCR24 = test: Single SABR-II co-incubation, NFAT-GFP Jurkat; details: TCR 24, Fig 3B, 18 h
In short: as §1

5KC cells, No TCR = test: mIL-2 ELISA, 5KC cells without TCR with SABR NFAT-GFP Jurkat cells; details: murine IL-2 ELISA, 24 hr co-incubation
TCR4 = test: Single SABR-II co-incubation, NFAT-GFP Jurkat; details: TCR 4
In short: as §1

TCR15 = test: Single SABR-II co-incubation, NFAT-GFP Jurkat; details: TCR 15, Fig 3B, 18 h
In short: as §1

[1] = Fig 3B, 18 h, biological replicate 1
[2] = Fig 3B, 18 h, biological replicate 2
[3] = Fig 3B, 18 h, biological replicate 3

SHLVEALYLVCGERG
%GFP+CD69+ cells of SABR-NFAT-GFP-Jurkat cells (TCR11; [1]): 7.09%
%GFP+CD69+ cells of SABR-NFAT-GFP-Jurkat cells (TCR11; [2]): 7.41%
%GFP+CD69+ cells of SABR-NFAT-GFP-Jurkat cells (TCR11; [3]): 7.96%
%GFP+CD69+ cells of SABR-NFAT-GFP-Jurkat cells (TCR11; Fig 4B, technical replicate 1): 4.58%
%GFP+CD69+ cells of SABR-NFAT-GFP-Jurkat cells (TCR11; Fig 4B, technical replicate 2): 4.07%
%GFP+CD69+ cells of SABR-NFAT-GFP-Jurkat cells (TCR37; biological replicate 1): 31.07%
%GFP+CD69+ cells of SABR-NFAT-GFP-Jurkat cells (TCR37; biological replicate 2): 38.77%
%GFP+CD69+ cells of SABR-NFAT-GFP-Jurkat cells (TCR37; biological replicate 3): 34.13%
%GFP+CD69+ cells of SABR-NFAT-GFP-Jurkat cells (TCR30; [1]): 5.68%
%GFP+CD69+ cells of SABR-NFAT-GFP-Jurkat cells (TCR30; [2]): 7.14%
%GFP+CD69+ cells of SABR-NFAT-GFP-Jurkat cells (TCR30; [3]): 5.4%
%GFP+CD69+ cells of SABR-NFAT-GFP-Jurkat cells (TCR30; Fig 4B, replicate 1): 3.98%
%GFP+CD69+ cells of SABR-NFAT-GFP-Jurkat cells (TCR30; Fig 4B, replicate 2): 3.65%
%GFP+CD69+ cells of SABR-NFAT-GFP-Jurkat cells (TCR30; Fig 4B, replicate 3): 3.27%
%GFP+CD69+ cells of SABR-NFAT-GFP-Jurkat cells (TCR24; biological replicate 1): 14.87%
%GFP+CD69+ cells of SABR-NFAT-GFP-Jurkat cells (TCR24; biological replicate 2): 17.6%
%GFP+CD69+ cells of SABR-NFAT-GFP-Jurkat cells (TCR24; biological replicate 3): 16.8%
IL-2 secretion (5KC cells, No TCR; technical replicate 1): 2.192
IL-2 secretion (5KC cells, No TCR; technical replicate 2): 4.996

LQTLALNAARDP
%GFP+CD69+ cells of SABR-NFAT-GFP-Jurkat cells (TCR4; Ext. Data Fig. 6C, 18-20 hr, technical replicate 1): 21.3%
%GFP+CD69+ cells of SABR-NFAT-GFP-Jurkat cells (TCR4; Ext. Data Fig. 6C, 18-20 hr, technical replicate 2): 21.3%
%GFP+CD69+ cells of SABR-NFAT-GFP-Jurkat cells (TCR4; [1]): 36.63%
%GFP+CD69+ cells of SABR-NFAT-GFP-Jurkat cells (TCR4; [2]): 32.63%
%GFP+CD69+ cells of SABR-NFAT-GFP-Jurkat cells (TCR4; [3]): 39.93%
%GFP+CD69+ cells of SABR-NFAT-GFP-Jurkat cells (TCR4; Fig 4B, technical replicate 1): 25.9%
%GFP+CD69+ cells of SABR-NFAT-GFP-Jurkat cells (TCR4; Fig 4B, technical replicate 2): 25.4%
%GFP+CD69+ cells of SABR-NFAT-GFP-Jurkat cells (TCR4; Fig 5C, technical replicate 1): 42.4%
%GFP+CD69+ cells of SABR-NFAT-GFP-Jurkat cells (TCR4; Fig 5C, technical replicate 2): 42.4%
%GFP+CD69+ cells of SABR-NFAT-GFP-Jurkat cells (TCR15; biological replicate 1): 39.97%
%GFP+CD69+ cells of SABR-NFAT-GFP-Jurkat cells (TCR15; biological replicate 2): 41.2%
%GFP+CD69+ cells of SABR-NFAT-GFP-Jurkat cells (TCR15; biological replicate 3): 48.23%
